We go through five compounds from patent US11479533B2, “Inhibitors of Rho associated coiled-coil containing protein kinase” (KADMON CORPORATION, LLC, priority 2017, dated 2022).

Molecules are shown by their SMILES.

Data set [1] has as its target recombinant ROCK2 (amino acids 1-552) (Homo sapiens (Human), UniProt O75116). In words: Z'-lyte kinase assay, ROCK2. Format: biochemical. Put shortly: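 Inhibition of recombinant human ROCK2 (residues 1-552, sourced from ThermoFisher Scientific) was assessed in vitro with the Z'-lyte kinase kit. Kinase activity with compound was normalized to DMSO control to give percent inhibition. IC50s came from 9-point 2-fold serial dilutions fitted by nonlinear regression in GraphPad Prism.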

Data set [2] addresses recombinant ROCK1 (amino acids 1-535) (Homo sapiens (Human), UniProt Q13464). The experiment in a line: Z'-lyte kinase assay, ROCK1. Format: biochemical. How it is done:
Determination of compounds ROCK inhibitory activity in vitro (Z'lyte assay): recombinant ROCK1 (amino acids 1-535) and ROCK2 (amino acids 1-552) proteins were purchased from ThermoFisher Scientific. Compounds activities were measured by Z'-lyte kinase kit (ThermoFisher Scientific) and IC50s were calculated.
Compounds activities were measured by Z'-lyte kinase kit (ThermoFisher Scientific). […] IC50s were calculated using the GraphPad Prism software with kinase activities data that were collected from 9 points serial dilution of compounds treatment. The ROCK inhibition in A7R5 cells and NIH3T3 (Acta2-Luc) cells was performed as described above.
The percent inhibition rate was calculated by normalizing the kinase activity value obtained with compound treatment against DMSO control value and then applied to the equation, […]. IC50's were calculated using the nonlinear regression curve fit function of the GraphPad Prism software with kinase activities data measured with 9 points 2-fold serial dilution of compounds treatment.

The subject of data set [3] is ppMlc (T18/S19) levels in A7R5 cells. In words: A7R5 in-cell ELISA assay (ppMlc). Format: cell-based, rat. The following applies: Rattus norvegicus, A7R5, A7R5 cells, Table 2; read-out: pMLC IC50 (nM) A7R5. The essentials:
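Rat aortic smooth muscle A7R5 cells in DMEM with 10% FBS, seeded 24 h, then treated 90 min with 9-point 2-fold compound dilutions. ppMlc (T18/S19) measured by colorimetric in-cell ELISA; cellular IC50 from nonlinear regression curve fit.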
In general terms: ELISA stands for enzyme-linked immunosorbent assay.

Data set [4] has as its system ACTA2-promoter-driven-luciferase in NIH3T3 cells. The experiment in a line: NIH3T3 Acta2-promoter driven-luciferase assay. Format: cell-based. The settings on record: Mus musculus, plus TGFβ1, 24 hr, read-out: NIH3T3, Acta2-luc, IC50. The essentials:
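Stable NIH3T3 line carrying luciferase reporter under human ACTA2 promoter (−1000-1 bp); confluent cells given 9-point compound dilutions with TGFβ1 for 24 hr. Lysed cells read for luciferase; IC50 from nonlinear regression fit.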

In data set [5] the test system is human oligodendrocyte/neuron progenitor cells. The experiment in a line: Neurite outgrowth and differentiation of human oligodendrocyte/neuron progenitors. Format: cell-based. How it is done:
Thawing and proliferation of human oligodendrocyte/neuron progenitor cells (OPCs). Cryopreserved human oligodendrocyte/neuron progenitors (Millipore Cat. No. CS204496) were recovered and cultured on maltrigel (BD Cat. No. 356324) coated T-25 flask in expansion media containing OPC/neuron basal medium, N21 medium supplement, recombinant human bFGF, PDGF-AA and NT-3. When cells reached 80% confluent, 3 ml of Accutase was applied (Millipore SCR005) to passage cells at 1:4 ratio. Sub-cultured cells were maintained in expansion media for proliferation.
Spontaneous differentiation of human oligodendrocyte/neuron progenitors in 24-well and 96-well plates. Coat plate with 10 μg/ml poly-L-ornithine (Sigma Cat. No. P4957) overnight at room temperature. Remove the poly-L-ornithine solution and rinse the plate with 1×PBS, add 10 μg/ml laminin (Millipore Cat. No. CC095) and incubate at 37° C. for at least 2 hours. Seed cells on the coated plates in expansion media and allowed to attach overnight. The next day expansion media was removed and replaced with freshly prepared spontaneous differentiation media only containing OPC/neuron basal media and N21 media supplement. For 14 day culture, differentiation media was replaced every 3-4 days. Cells were imaged and neurite length was analyzed by IncuCyte S3 Live Cell Analysis System every 4 hours. After 14 days of differentiation, cells were fixed by 4% paraformaldehyde and stained with DAPI and Neuron-specific ß-III tubulin antibody (R&D systems, NL1195R).

Data set [6] shares this test system. The experiment in a line: Chondroitin Sulfate Proteoglycan (CSPG) assay on human oligodendrocyte/neuron progenitors. The settings on record: 1 μM and 3 μM, 72 hour. Format: cell-based. The procedure:
Chondroitin Sulfate Proteoglycan (CSPG) assay on human oligodendrocyte/neuron progenitors in 96-well plate. […] Cells were seeded on the coated plates at a density of 6,000 cells per well in expansion media. The following day the expansion media was replaced with fresh spontaneous differentiation media containing testing compounds. Cells were imaged and neurite length was analyzed by IncuCyte S3 Live Cell Analysis System every 4 hours.

The test system is the same in data set [7]. In words: Aβ 1-42 induced cell death assay on human oligodendrocyte/neuron progenitors. The following applies: 3 μM, 10.5 μM Aβ1-42, 24 hour. Format: cell-based. The procedure:
Aβ 1-42 induced cell death assay on human oligodendrocyte/neuron progenitors in 96-well plate. Cells were seeded on poly-L-ornithine and laminin coated plates at a density of 8,000 cells per well and maintained in expansion media until Day 3, then media was replaced with fresh spontaneous differentiation media containing testing compounds and IncuCyte Annexin V Red Reagent (1:200 dilution) (Essen BioScience Cat. No. 4641). After the pre-incubation period of 30 minutes at 37° C., 10.5 μM Aβ 1-42 (Bachem Product No. H-8146) was added directly in the pretreatment solution. Neurite length and total Annexin V positive area were analyzed by IncuCyte S3 Live Cell Analysis System every 2 hours.
In addition to promoting neuroregeneration, ROCK inhibitors have been reported to exert neuroprotective effects and prolong neuronal survival. Here we test the neuroprotective effect of ROCK inhibitors against Aβ1-42. Human oligodendrocyte/neuron progenitor cells were pre-incubated with ROCK inhibitors for 30 minutes before exposing to 10.5 μM Aβ1-42. IncuCyte Annexin V Red Reagent was added to culture media to label cell apoptosis. Pictures were taken by IncuCyte S3 and total Annexin V positive area was analyzed by IncuCyte S3 base software. Neurite length was quantified by IncuCyte NeuroTrack Software Module, see FIGS. 3b and 3c.

For data set [8] the following is noted: cited from earlier work.
Data set [9] concerns sAPPβ. The following applies: direct injection into hippocampus; cited from earlier work.

Sequence of recombinant ROCK2 (amino acids 1-552) (O75116 1-552): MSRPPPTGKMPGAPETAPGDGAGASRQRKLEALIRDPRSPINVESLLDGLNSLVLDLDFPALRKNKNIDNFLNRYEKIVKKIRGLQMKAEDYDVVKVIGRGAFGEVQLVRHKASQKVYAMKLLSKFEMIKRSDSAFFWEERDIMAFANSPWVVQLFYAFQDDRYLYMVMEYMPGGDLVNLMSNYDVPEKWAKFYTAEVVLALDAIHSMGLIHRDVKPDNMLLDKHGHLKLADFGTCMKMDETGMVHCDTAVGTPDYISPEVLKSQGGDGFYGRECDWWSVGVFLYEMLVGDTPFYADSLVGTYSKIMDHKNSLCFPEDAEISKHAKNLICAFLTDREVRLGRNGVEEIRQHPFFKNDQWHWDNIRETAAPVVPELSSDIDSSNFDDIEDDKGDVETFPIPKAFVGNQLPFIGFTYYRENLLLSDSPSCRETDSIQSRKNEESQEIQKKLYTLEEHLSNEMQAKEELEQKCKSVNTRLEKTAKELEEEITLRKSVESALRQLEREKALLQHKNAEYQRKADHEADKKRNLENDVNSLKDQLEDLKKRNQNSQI
Sequence of recombinant ROCK1 (amino acids 1-535) (Q13464 1-535): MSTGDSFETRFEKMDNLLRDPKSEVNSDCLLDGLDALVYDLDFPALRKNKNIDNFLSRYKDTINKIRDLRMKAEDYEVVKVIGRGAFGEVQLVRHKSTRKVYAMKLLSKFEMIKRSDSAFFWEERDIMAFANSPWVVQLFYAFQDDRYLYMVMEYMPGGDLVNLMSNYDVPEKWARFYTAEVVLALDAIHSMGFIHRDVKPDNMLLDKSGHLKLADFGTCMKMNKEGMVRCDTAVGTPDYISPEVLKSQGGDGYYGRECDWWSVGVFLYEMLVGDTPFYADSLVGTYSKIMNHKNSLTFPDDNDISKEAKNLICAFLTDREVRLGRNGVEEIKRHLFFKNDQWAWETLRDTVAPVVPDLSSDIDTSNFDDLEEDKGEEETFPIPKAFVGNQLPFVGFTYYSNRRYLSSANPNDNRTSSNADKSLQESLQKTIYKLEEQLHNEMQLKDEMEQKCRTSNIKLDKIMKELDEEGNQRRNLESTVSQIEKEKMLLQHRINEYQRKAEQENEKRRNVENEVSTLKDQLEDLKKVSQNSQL

As for `CNC(C(=O)Nc1ccc(-c2cn[nH]c2)cc1)c1ccc(Cl)cc1` (centres unmarked) [Example 17, N-(4-(1H-pyrazol-4-yl)phenyl)-2-(4-chlorophenyl)-2-(methylamino)acetamide], the figures for the IC50 in data set [1], in [3] and in data set [4] were 6.3 nM, 60 nM and 108 nM, respectively. Also, the inhibition at 0.5 µM in data set [1] (@ 0.5 μM, read-out: ROCK2 % inh (0.5 μM)) was 98%; in data set [2] (@ 0.5 μM, read-out: ROCK1 % inh (0.5 μM)) it was 99%. Besides, the “neuronal differentiation and maturation” value in data set [5] (14 days culture, Beta III tubulin) was “facility neuronal differentiation and maturation”. In addition, in data set [5] (various concentrations, 3 days culture), the neurite length result is given as “significantly increase neurite length”. In data set [6], the “CSPG mediated neurite outgrowth arrest” value is reported as “significantly counteract”. In data set [7], the “Aβ1-42 induced cell death (Annexin V area)” value is “significantly protect”. For the same compound, in [7], the “neurite outgrowth in the presence of Aβ1-42” value was “promoted neurite outgrowth”.

For `CNCCN[C@@H](C(=O)Nc1ccc(-c2cn[nH]c2)cc1)c1cccc(OC)c1` [Example 62, (R)—N-(4-(1H-pyrazol-4-yl)phenyl)-2-(3-methoxyphenyl)-2-((2-(methylamino)ethyl)amino)acetamide], the IC50 (usually the midpoint of a concentration-inhibition curve) in [1] amounted to 1.8 nM; in data set [2], 3 nM; in [3], 58 nM; in data set [4], 108 nM.

Turning to `CNCCN[C@H](C(=O)Nc1ccc(-c2cn[nH]c2)cc1)c1cccc(OC)c1` [Example 63, (S)—N-(4-(1H-pyrazol-4-yl)phenyl)-2-(3-methoxyphenyl)-2-((2-(methylamino)ethyl)amino)acetamide], the half-maximal inhibitory concentration (IC50) in data set [1] amounted to 22 nM; in [2] it was 81 nM; in data set [3] it was 548 nM; in data set [4], 633 nM.

In the case of `CNC(C(=O)Nc1cc(OC)c(-c2cn[nH]c2)cc1F)c1cccc(OC)c1` (centres unmarked) [Example 66, N-(2-fluoro-5-methoxy-4-(1H-pyrazol-4-yl)phenyl)-2-(3-methoxyphenyl)-2-(methylamino)acetamide], the IC50 was found to be 18 nM in [1], 56 nM in [2], 332 nM in data set [3] and 396 nM in data set [4].

As to `CN(C)CCOc1cc(-c2cn[nH]c2)ccc1NC(=O)C1COc2ccccc2O1` (centres unmarked) [SR3677], in data set [8] (in vivo), the brain penetration result was “lack of brain penetration”. Moreover, the half-life (commonly the time needed for the level to fall by half in the phase considered) in data set [8] (oral PK) is below 1 h. In data set [8] (oral), the “oral bioavailability (F)” value is 5%. Besides, the sAPPβ result in data set [9] was “lowering sAPPβ”.
